In patent EP0326329B1, “Quinazoline derivatives useful as insecticides” (Dow AgroSciences LLC, priority 1988, dated 1989):

Tests used:
Assay type in all cases: in vivo
[1] = system: Botrytis cinerea (gray mold); test: Greenhouse Test 1, foliar spray fungicide screen (GRAY MOLD), host grape berries; settings: disease control rating, 400 ppm (+++ at 100 ppm)
[2] = system: Erysiphe graminis tritici (powdery mildew); test: Greenhouse Test 1, foliar spray fungicide screen (POWD MDEW), host wheat; settings: disease control rating, 400 ppm (+++ at 100 ppm)
[3] = system: Puccinia recondita tritici (leaf rust); test: Greenhouse Test 1, foliar spray fungicide screen (LEAF RUST), host wheat; settings: disease control rating, 400 ppm (+++ at 100 ppm)
[4] = system: southern armyworm (Spodopetra eridania Cramer); test: Mite/insect screen, sprayed squash leaves (SAW); settings: percent mortality; for mortality at 200 ppm / mortality at 400 ppm: Spodoptera eridania, read-out: SAW RESULTS %; for mortality at 200 ppm: spray rate 200 ppm
Method in brief: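 For the armyworm test, two uninfested sprayed leaves were excised, once dry for an hour, and placed in a Petri dish holding larvae. Spray solutions came from an emulsifier-containing 50:50 acetone/alcohol formulation diluted with water and were applied to runoff.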

[5] = system: melon aphids (Aphis gossypii Glover); test: Mite/insect screen, sprayed squash cotyledons (MA); settings: percent mortality; for mortality at 200 ppm / mortality at 400 ppm: Aphis gossypii, read-out: MA RESULTS %; for mortality at 200 ppm: spray rate 200 ppm
Method in brief: (§1)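 Compounds dissolved in acetone/alcohol with TOXIMUL R/S emulsifiers, diluted with water to test concentrations, and sprayed to runoff on both leaf surfaces at 10 psi, then dried 1 h. Excised treated squash leaves given southern armyworm larvae; aphid and spider mite tests on sprayed squash cotyledons. Percent mortality and phytotoxicity scored after standard exposure.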

[6] = system: Pseudoperonospora cubensis (downy mildew); test: Greenhouse Test 1, foliar spray fungicide screen (DOWN MDEW), host squash; settings: disease control rating, 400 ppm (+++ at 100 ppm)
[7] = system: Southern corn rootworm (Diabrotica undecimpuctata howardi Barber); test: Mite/insect screen, soil treatment (CRW); settings: percent mortality, soil treatment; for mortality at 12 ppm / mortality at 24 ppm: Diabrotica, read-out: CRW RESULTS %; for mortality at 12 ppm: CRW rate 12.00 ppm
Method in brief: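 Compounds dissolved in acetone/alcohol (50:50) with Toximul R/S emulsifiers, diluted with water. Soil (15 g, with presoaked corn seed) treated with 1 mL test solution, dried 6–12 h, then five 2–3 instar larvae added; held at 23°C. Percent mortality and phytotoxicity scored after standard exposure periods.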

[8] = system: Twospotted spider mites (Tetranychus urticae Koch); test: Mite/insect screen, sprayed squash cotyledons (SM); settings: percent mortality; for mortality at 200 ppm / mortality at 400 ppm: Tetranychus urticae, read-out: SM RESULTS %; for mortality at 200 ppm: spray rate 200 ppm
Method in brief: as §1

[9] = system: Pyricularia oryzae (rice blast); settings: disease control rating, foliar spray, host rice; 400 ppm (+++ at 100 ppm)

| Compound | GRAY MOLD [1] | POWD MDEW [2] | LEAF RUST [3] | mortality at 200 ppm [4] [%] | mortality at 400 ppm ([4]; spray rate 400 ppm) [%] | mortality at 200 ppm [5] [%] | mortality at 400 ppm ([5]; spray rate 400 ppm) [%] | DOWN MDEW [6] | mortality at 12 ppm [7] [%] | mortality at 24 ppm ([7]; CRW rate 24.00 ppm) [%] | mortality at 200 ppm [8] [%] | mortality at 400 ppm ([8]; spray rate 400 ppm) [%] | RICE BLAST [9] | SAW RESULTS % ([4]; spray rate 400 ppm) [%] | MA RESULTS % ([5]; spray rate 400 ppm) [%] | CRW RESULTS % ([7]; CRW rate 24.00 ppm) [%] | SM RESULTS % ([8]; spray rate 400 ppm) [%] |
| --- | --- | --- | --- | --- | --- | --- | --- | --- | --- | --- | --- | --- | --- | --- | --- | --- | --- |
| CC(C)(C)c1ccc(CCCOc2ncnc3c(F)cccc23)cc1 [Example 149, 8-fluoro-4-[3-[4-(1,1-dimethylethyl)phenyl]propoxy]quinazoline] | - (- = 0-19% control at 400 ppm) | ++ (++ = 90-100% control at 400 ppm) | - (- = 0-19% control at 400 ppm) | 0 | 0 | 0 | 0 | - (- = 0-19% control at 400 ppm) | 0 | 0 | 0 | 0 | - (- = 0-19% control at 400 ppm) |  |  |  |  |
| Fc1cccc2c(OCCc3cccc(Oc4ccccc4)c3)ncnc12 [Example 163, 8-fluoro-4-[2-(3-phenoxyphenyl)ethoxy]quinazoline] | - (- = 0-19% control at 400 ppm) | +++ (+++ = 90-100% control at 100 ppm) | +++ (+++ = 90-100% control at 100 ppm) | 80 | 40 | 80 | 80 | +++ (+++ = 90-100% control at 100 ppm) | 0 | 0 | 0 | 20 | +++ (+++ = 90-100% control at 100 ppm) |  |  |  |  |
| CCC(COc1ncnc2c(F)cccc12)c1ccc(-c2ccccc2)cc1 (stereo not drawn) [Example 197, 8-fluoro-4-[2-(1,1'-biphenyl)-4-ylbutoxy)quinazoline] | - (- = 0-19% control at 400 ppm) | + (+ = 20-89% control at 400 ppm) | - (- = 0-19% control at 400 ppm) | 0 | 0 | 80 | 0 | - (- = 0-19% control at 400 ppm) | 0 | 0 | 80 | 0 | + (+ = 20-89% control at 400 ppm) |  |  |  |  |
| CC(C)(C)c1ccc(CCOc2ncnc3ccc(Br)cc23)cc1 [Example 175, 6-bromo-4-[2-[4-(t-butyl)phenyl]ethoxy]quinazoline] | - (- = 0-19% control at 400 ppm) | - (- = 0-19% control at 400 ppm) | + (+ = 20-89% control at 400 ppm) | 100 | 0 | 80 | 0 | - (- = 0-19% control at 400 ppm) | 0 | 0 | 60 | 0 | ++ (++ = 90-100% control at 400 ppm) | 0 | 0 | 0 | 0 |
| CC(C)(C)c1ccc(CCOc2ncnc3ccc(Cl)cc23)cc1 [Example 174, 6-chloro-4-[2-[4-(t-butyl)phenyl]ethoxy]quinazoline] | - (- = 0-19% control at 400 ppm) | + (+ = 20-89% control at 400 ppm) | - (- = 0-19% control at 400 ppm) | 0 | 0 | 0 | 0 | ++ (++ = 90-100% control at 400 ppm) | 0 | 100 | 80 | 40 | ++ (++ = 90-100% control at 400 ppm) |  |  |  |  |
| c1ccc2cc(CCOc3ncnc4ccccc34)ccc2c1 [Example 80, 4-[2-(2-naphthyl)ethoxy]quinazoline] | - (- = 0-19% control at 400 ppm) | +++ (+++ = 90-100% control at 100 ppm) | +++ (+++ = 90-100% control at 100 ppm) |  | 0 |  | 100 | +++ (+++ = 90-100% control at 100 ppm) |  | 100 |  | 100 | +++ (+++ = 90-100% control at 100 ppm) |  |  |  |  |
